Test results reported in patent US20110150980A1, “CGRP ANALOG” (VasoGenix Pharmaceuticals, Inc., priority 2009, published 2011).
Bridges are numbered along the chain shown (N, C = ends). Where no end group is shown, it is not given here.

Tests used:
[1] = test system: sedated Non Human Primate; assay: IV infusion in the sedated Non Human Primate: blood pressure and heart rate (Example 1); format: in vivo
CRLR/RAMP1 receptor = target: T1, CRLR/RAMP1 receptor (Homo sapiens, UniProt O60894+Q16602); assay: CRE-luciferase assay in HEK293T cells transfected with CRLR and RAMP1; format: cell-based; details: compared to h-α-CGRP and h-β-CGRP as controls
T1 construct: All of the full-length cDNAs were subcloned into pcDNA3.1 expression vectors; expressed in transfected cells; host or cells: HEK293T, transient calcium phosphate transfection, pcDNA3.1 vectors
From the text: The expression vectors for RAMP1, RAMP2, RAMP3, CRLR, CRE-Luc and SRE-Luc were constructed as previously described (McLatchie L. M., et al. (1998) Nature 393:333-339). Human CRLR, RAMP1, and RAMP2 full-length cDNAs were cloned by RT-PCR using RNA obtained from HEK293T cells and CRLR, RAMP1, and RAMP2-specific primers. Human RAMP3 full-length cDNAs were cloned by RT-PCR using RNA from human kidney and RAMP3 specific primers. All of the full-length cDNAs were subcloned into pcDNA3.1 expression vectors.
Human embryonic kidney 293T cells (HEK293T) were maintained in Dulbecco's modified Eagle's medium supplemented with 10% fetal calf serum, 2 mM glutamine, […], at 37° C. in a humidified atmosphere of 95% air and 5% CO2. Transient transfections were performed using calcium phosphate co-precipitation (Mellon P. L., et al. (1981) Cell 27:279-288). Cells in six-well plates or 100-mm Petri dishes were grown to 70% confluence and transfected with 0.1 μg of DNA for CRLR, 0.05 μg for RAMPs or 1 μg for CRE-Luc and SRE-Luc per cm^2. The total amount of DNA transfected in each condition was kept constant by adding empty pcDNA3.1 vector when needed. Twenty hours after transfection, the medium was replaced with fresh medium containing 5 mM sodium butyrate for 24 h and then replaced for an additional 24 h with fresh medium without sodium butyrate. All of the experiments were performed 72 h after transfection to allow correct glycosylation and cell surface targeting of CRLR and RAMPs.
After exposure to various concentrations of CGRP or the CGRP analogs, the cells were lysed and assayed for CRE- or SRE-luciferase activity using the luciferase assay system (Promega), and luminescence was measured using a 96-well luminometer.
The mechanism of action for CGRP at the CRLR/RAMP1 receptor is known to up-regulate cAMP through the gs pathway, and to a lesser extent [Ca^2+] through the gq pathway. […] It is the cAMP pathway that is the primary mechanism of action of CGRP for vasodilation, cardio/renoprotection and immunomodulation.

[2] = test system: non-sedated, non-naïve cynomolgus monkeys; assay: Intravenous infusion in non-sedated, telemeterized non-human primates: blood pressure, heart rate, ECG (Example 2); format: in vivo
Procedure: Peptides were synthesized as in Example 1. […] Two non-naïve, telemeterized, male non-human primates (NHP “a” and “b”) were used for the test article(s) dosing regimen. […] Following a stabilized baseline period of approximately 30 minutes, one of the test article(s) was administered as an intravenous infusion via a femoral vein vascular access port (VAP) using a Pegasus PCA infusion pump for a period of 30 or 60 minutes. A minimum period of 30 minutes was allotted for the hemodynamic parameters to return to baseline prior to the next test article infusion dose. The process was repeated for each of the stated test articles. The same procedure was followed for the 1 hour infusion with 1 hour allotted for parameters to return to base line.
The non-human primates were previously surgically prepared with telemetry transducers, type TL11M2-D70-PCT (Data Sciences International). The acquisition and analysis was done using a Ponemah (Version 4.8 or higher) data acquisition and analysis system installed on the hard drive of a computer. The computer was equipped with disk drive for file back up on readable write-once only optical media (CD-R or DVD-R).
Prior to the first dose administration, baseline data was acquired. For each subsequent dose, data was collected for approximately 30 min postdose. Prior to the next dose, the hemodynamic parameters were allowed to return to a stable baseline±10%.
Systolic blood pressure (SYS or SBP), diastolic blood pressure (DBP), mean arterial pressure (MAP), heart rate (HR), and all lead II ECG variables were recorded. The telemetry data files were transferred to an Excel (MicroSoft® Version 2003) spreadsheet. The following variables from the lead II ECG were measured: PR interval, QRS duration, QT interval, RR interval, and QTcF interval (calculated as
A visual inspection of the entire collected ECG waveform for disturbances in rhythm and waveform morphology was performed. The data for selected time points were analyzed and assessed on completion of data acquisition and were the average of at least 30 beats (ABP and ECG) of data at the selected analysis time, when possible. The time points for both hemodynamic and ECG data analysis were an initial 30 min baseline prior to the first dose, at a 10 min during each infusion postdose interval relative to end of each infusion, and time points prior to the next test article infusion for each test compound.
Non-human primates were selected because they have the same RAMP 1-CGRP receptor complex as humans.

[3] = NHP a, dose day 2, during 30 minute infusions of 0.024 ug/kg/min
[4] = NHP a, dose day 3, during 30 minute infusions of 0.024 ug/kg/min
[5] = NHP a, dose day 3, during 1 hour infusion of 0.024 ug/kg/min
[6] = NHP b, dose day 2, during 30 minute infusions of 0.024 ug/kg/min
[7] = NHP b, dose day 3, during 30 minute infusions of 0.024 ug/kg/min
[8] = NHP b, dose day 3, during 1 hour infusion of 0.024 ug/kg/min
[9] = average of a 2, b 2, a 3, b 3, during 30 minute infusions of 0.024 ug/kg/min
[10] = average of a3, b3, during 1 hour infusion of 0.024 ug/kg/min

T1 sequence (Q16602 23-461): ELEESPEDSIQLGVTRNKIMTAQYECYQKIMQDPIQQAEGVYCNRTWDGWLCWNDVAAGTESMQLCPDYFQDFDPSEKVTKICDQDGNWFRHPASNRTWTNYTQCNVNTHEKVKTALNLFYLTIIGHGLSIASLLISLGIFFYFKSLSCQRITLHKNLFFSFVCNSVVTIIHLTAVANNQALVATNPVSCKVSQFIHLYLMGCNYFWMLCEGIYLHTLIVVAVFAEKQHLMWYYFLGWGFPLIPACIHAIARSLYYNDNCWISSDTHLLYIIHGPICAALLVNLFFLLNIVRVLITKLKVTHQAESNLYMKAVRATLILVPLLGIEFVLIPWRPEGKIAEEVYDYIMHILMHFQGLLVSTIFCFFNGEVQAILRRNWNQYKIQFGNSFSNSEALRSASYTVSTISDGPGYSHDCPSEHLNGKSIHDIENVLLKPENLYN
T1 sequence (O60894 27-148): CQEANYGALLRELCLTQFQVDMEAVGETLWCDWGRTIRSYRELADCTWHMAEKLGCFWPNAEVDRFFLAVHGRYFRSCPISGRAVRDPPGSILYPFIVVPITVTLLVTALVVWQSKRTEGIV

Substance: Cyc-ACNTATCVTHRLAGLLSRSGGVVKSNFVPTNVGSKAF-NH2 (disulfide 2-7 (inferred)) [Peptide V]
- Heart rate effect ([1]; at any of the tested doses): no increase in heart rate
- increase in heart rate (HR) compared to the control CGRP ([1]; sedated Non Human Primate, IV for 5 minutes at 29/ng/kg/min): reduced increase in heart rate
- activity and potency in binding to the CGRP receptor, CRE-Luciferase assay (CRLR/RAMP1 receptor): as equally active and potent as h-α-CGRP and h-β-CGRP
- Percent change in HR, a 2 [2, 3]: −19.8%
- Percent change in mean BP, a 2 [2, 3]: −20.0%
- Percent change in systolic BP, a 2 [2, 3]: −16.2%
- Percent change in HR, a 3 [2, 4]: −22.2%
- Percent change in mean BP, a 3 [2, 4]: −8.8%
- Percent change in systolic BP, a 3 [2, 4]: −6.8%
- Percent change in HR at 30 minutes, a3 [2, 5]: −22.2%
- Percent change in HR at 60 minutes, a3 1 hr [2, 5]: −5.8%
- Percent change in mean systolic BP at 30 minutes, a3 [2, 5]: −8.8%
- Percent change in mean systolic BP at 60 minutes, a3 1 hr [2, 5]: −5.3%
- Percent change in systolic BP at 30 minutes, a3 [2, 5]: −6.8%
- Percent change in systolic BP at 60 minutes, a3 1 hr [2, 5]: −5.8%
- Percent change in HR, b 2 [2, 6]: −13.1%
- Percent change in mean BP, b 2 [2, 6]: −28.6%
- Percent change in systolic BP, b 2 [2, 6]: −27.2%
- Percent change in HR, b 3 [2, 7]: −37.3%
- Percent change in mean BP, b 3 [2, 7]: −26.4%
- Percent change in systolic BP, b 3 [2, 7]: −23.9%
- Percent change in HR at 30 minutes, b3 [2, 8]: −37.3%
- Percent change in HR at 60 minutes, b3 1 hr [2, 8]: 14.5%
- Percent change in mean systolic BP at 30 minutes, b3 [2, 8]: −26.4%
- Percent change in mean systolic BP at 60 minutes, b3 1 hr [2, 8]: 2.4%
- Percent change in systolic BP at 30 minutes, b3 [2, 8]: −23.9%
- Percent change in systolic BP at 60 minutes, b3 1 hr [2, 8]: 2.8%
- Percent change in mean HR, a 2 ([2]; Table 14, NHP a, dose day 2, during 30 minute infusions of 0.024 ug/kg/min): −19.8%
- Percent change in mean HR, a 3 ([2]; Table 14, NHP a, dose day 3, during 30 minute infusions of 0.024 ug/kg/min): −22.2%
- Percent change in mean HR, b 2 ([2]; Table 14, NHP b, dose day 2, during 30 minute infusions of 0.024 ug/kg/min): −13.1%
- Percent change in mean HR, b 3 ([2]; Table 14, NHP b, dose day 3, during 30 minute infusions of 0.024 ug/kg/min): −37.3%
- Percent change in mean HR, HR ([2]; Table 14, average of a 2, b 2, a 3, b 3, during 30 minute infusions of 0.024 ug/kg/min): −23.1%
- Percent change in mean HR at 30 minutes, a3 ([2]; Table 24, NHP a, dose day 3, during 1 hour infusion of 0.024 ug/kg/min): −22.2%
- Percent change in mean HR at 30 minutes, b3 ([2]; Table 24, NHP b, dose day 3, during 1 hour infusion of 0.024 ug/kg/min): −37.3%
- Percent change in mean HR at 30 minutes, HR T30 ([2]; Table 24, average of a3, b3, during 1 hour infusion of 0.024 ug/kg/min): −29.8%
- Percent change in mean HR at 60 minutes, a3 1 hr ([2]; Table 25, NHP a, dose day 3, during 1 hour infusion of 0.024 ug/kg/min): −5.8%
- Percent change in mean HR at 60 minutes, b3 1 hr ([2]; Table 25, NHP b, dose day 3, during 1 hour infusion of 0.024 ug/kg/min): 14.5%
- Percent change in mean HR at 60 minutes, HR T60 ([2]; Table 25, average of a3, b3, during 1 hour infusion of 0.024 ug/kg/min): 4.4%
- Percent change in HR, HR [2, 9]: −23.1%
- Percent change in mean BP, BP [2, 9]: −21.0%
- Percent change in systolic BP, BP [2, 9]: −18.5%
- Percent change in HR at 30 minutes, HR T30 [2, 10]: −29.8%
- Percent change in HR at 60 minutes, HR T60 [2, 10]: 4.4%
- Percent change in mean systolic BP at 30 minutes, BP T30 [2, 10]: −17.6%
- Percent change in mean systolic BP at 60 minutes, BP T60 [2, 10]: −1.5%
- Percent change in systolic BP at 30 minutes, T30 [2, 10]: −15.4%
- Percent change in systolic BP at 60 minutes, T60 [2, 10]: −1.5%
- reduction of BP and HR (Tables 8, 13 and 14, FIG. 11) ([2]; mean BP and HR, 30 minute infusions, 0.024 ug/kg/min): reduced both BP and HR to a greater extent than the positive control αCGRP
- effect on heart rate ([2]; non-sedated cynomolgus monkeys, IV infusion): maintenance of pre-administration heart rate, and in some cases, reduction in heart rate
- reduction of BP and HR (Tables 8-10, FIG. 10) ([2]; systolic BP and HR, 30 minute infusions, 0.024 ug/kg/min): reduced BP and HR to a greater extent than αCGRP and βCGRP
